Results on 1 compound are retold here after US11684646B2, “Methods and related compositions for reducing oxidative stress” (Gateway Health Alliances, Inc., priority 2019, dated 2023).

The test in a line: Ability to trap the DPPH radical. The conditions noted are these: 5 μg/mL. The protocol:
PRINCIPLE: This method is based on the reduction of an alcoholic solution of the stable form of the DPPH. radical in the presence of an antioxidant donor of hydrogen (AH), which leads to the formation of a non-radical form DPPH-H. This reduction causes a color change from violet to yellow which could be studied at 517 nm. The faster the color change occurs, the more the donor is considered as a strong antioxidant. PROTOCOL: 50 μL of different concentrations of each extract was added to 1.950 mL of freshly prepared methanolic DPPH. […] After incubation for 30 minutes in the dark and at room temperature, the absorbance was read at 517 nm. Methanol was used as control and ascorbic acid was used as standard. The ability to trap DPPH^· was expressed in percentage inhibition as calculated using the following equation: [formula] The inhibitory concentrations 50 (IC50) were later determined by extrapolating after drawing curves of percentage inhibition against concentration. All samples were analyzed in triplicates. I.4.3. Evaluation of DPPH^· Anti-Radical Activity of Rough Extract Fractions This activity was evaluated using the protocol of Sanchez-Moreno et al. (1998) as described earlier.

Each structure is given as a SMILES string.

Take `O=C1O[C@H]([C@@H](O)CO)C(O)=C1O` [Vitamin C, ascorbic acid]: the “% inhibition of DPPH radical” value is on record as 54%.
